The source of these data is patent publication US5908868A, “Retinol derivatives useful for enhancing immune response” (priority 1995, dated 1999).

The test system of one series is lymph node T cells. Kind of series: Proliferation of anti-CD3 activated lymph node T cells. It counts as cell-based, BALB/c mouse. The text has this: Growth curves of lymph node T cells depleted of antigen-presenting cells (FIG. 17A) with and without 10^-6 M retinol at 2×10^5 and 5×10^4 cells/well. (FIG. 17B) Dose-responses elicited by different retinoids in cultures of lymph node T cells depleted of antigen-presenting cells. Also shown are the growth curves of CD4^+ (FIG. 17C) and CD8^+ T lymphocytes (FIG. 17D) in the presence of either retinol, 14HRR, human serum or in their absence.
T lymphocytes, purified as described, 5×10^4 well, were activated with immobilized anti-CD3 antibody in ITLB medium. The indicated amounts of retinoids or human serum were added at initiation of cultures. […] 14HRR was added every 12 hours. DNA synthesis was measured by a 4 hour pulse with tritiated thymidine. SDs were ≤17%.
Mature T cells were obtained from pooled intestinal, axillary, inguinal and submandibular lymph nodes of 4 to 10-week-old BALB/c mice. To fractionate cells into CD4 and CD8 subsets and at the same time remove APC, a combination of adherence and complement lysis was used as follows:
Cells were cultured in serum-free medium, referred to as ITLB, containing RPMI 1640 supplemented with 8×10^-7 M insulin (5 μg/ml), 7×10^-8 M transferrin (5 μg/ml), 2×10^-6 M linoleic acid, 2×10^-6 M delipidated BSA (0.12 mg/ml), 2 mM L-glutamine, 1 mM sodium pyruvate and antibiotics. They were seeded into 96-well flat-bottom plates at varying cellular densities in a final volume of 100 μl. In control experiments, cells were cultured in medium containing 10% FCS or 3% human serum and 5×10^-5 M 2 ME. T cells and thymocytes were activated with immobilized, purified anti-mab CD3e or by the addition of Con A in the presence or absence of different concentrations of retinoids. Unless indicated otherwise, retinoids were replenished every 12 hours to maintain a reasonably constant concentration of these labile compounds in culture. The optimal concentration for stimulation of T cells was determined for each batch of anti-CD3 mAb and Con A. The optimal range of Con A was particularly narrow in serum-free medium (0.5-0.2 μg/ml) and varied with the cell density used. […] Cultures were carried out in duplicate. Plates were incubated at 37° C. in a humidified 5% CO2 atmosphere. Cellular proliferation was determined by [^3 H] thymidine uptake (0.5 uCi/well; New England Nuclear, Boston, Mass.) after the incubation times indicated for each experiment with a 4 hour labeling pulse. Cells were harvested onto glass filter and [^3 H]TdR incorporation was determined by liquid scintillation counting. The data presented are the means of duplicate or six replicate cultures. The restriction to duplicate measurements was necessary to conserve scarce 14HRR. They were within 20% of each other. Each experiment was repeated at least twice.

Series [1] deals with lymphoblastoid cells (LCL). Conditions: serum-free medium; cited from earlier work.
A further series has as its system T cells. Kind of series: T cell activation/proliferation. It counts as cell-based, murine. Conditions: with mitogen/anti-CD3. As for the experimental part:
They were seeded into 96-well flat-bottom plates at varying cellular densities in a final volume of 100 μl. In control experiments, cells were cultured in medium containing 10% FCS or 3% human serum and 5×10^-5 M 2 ME. […] Cultures were carried out in duplicate. Plates were incubated at 37° C. in a humidified 5% CO2 atmosphere. Cellular proliferation was determined by [^3 H] thymidine uptake (0.5 uCi/well; New England Nuclear, Boston, Mass.) after the incubation times indicated for each experiment with a 4 hour labeling pulse. Cells were harvested onto glass filter and [^3 H]TdR incorporation was determined by liquid scintillation counting. The data presented are the means of duplicate or six replicate cultures. The restriction to duplicate measurements was necessary to conserve scarce 14HRR. […] Each experiment was repeated at least twice.

In a further series the test system is lymphoblastoid 5/2 cells. Kind of series: Conversion of 13,14DHR to 14HRR by lymphoblastoid cells. Conditions: 10^-6 M, 1 and 2 hours, ITLB. It counts as in vitro ADME, human. The method, then:
FIGS. 25A through 25D. 13,14DHR can be converted to 14HRR by lymphoblastoid cells. 200,000 5/2 cells/ml were incubated with or without 10^-6 M 13,14DHR added in serum-free ITLB medium. After 1 and 2 hours, cells pellets corresponding to 10 ml of culture were delipidated and the corresponding lipid fractions separated on an analytical C18 reversed-phase column according to FIG. 20. Peaks were identified according to their retention times and their UV absorption patterns.
Lymphoblastoid 5/2 cells devoid of retinol were cultured in the presence or absence of 10^-6 M 13,14DHR for 1 and 2 hours in ITLB medium. The retinoids extracted from the cell pellets were separated by HPLC according to FIG. 20. […] There was no 14HRR measurable in control cultures.

For another series, the system named is 5/2 cells. Kind of series: Growth (DNA synthesis, [3H]thymidine) of lymphoblastoid 5/2 cells in serum-free medium. It counts as cell-based, human. Conditions: ITLB medium without retinol. As for the experimental part: Washed 5/2 cells (5,000/well) were incubated for 72 hours in HB101 medium with the indicated amounts of retinoids. DNA synthesis was measured by [^3 H] thymidine uptake. The measurements were done in triplicate. The SDs were <15%.
In FIGS. 4B to 4D, 5/2 cells were washed twice and seeded at a concentration of 150,000 cells/ml in HB 101 medium. Triplicate samples of 100 μl of cell suspension were removed daily and pulsed for 6 hours with [^3 H] thymidine. Means are shown. The SDs were never >20%.
P3 was purified as described in the Experimental Details section. 5/2 cells (5,000/well) were incubated for 72 hours in HB101 medium and refed with the indicated amount of retinoid daily. DNA synthesis was measured by [^3 H]-thymidine uptake. P3 is bioactive down to a concentration of 10-^8 M (FIG. 8). […] This is due either to chemical instability or to a more rapid metabolic degradation of P3 by the cells.
The assay was done in 96-well microtiter plates in a final volume of 200 ul/well. The cells were cultured for 72 hours and cell growth determined by [^3 H] thymidine (0.8 μCi/well)labeling for the last 16 hours. Retinoids were added at the indicated concentrations at the initiation of culture and every 24 hours thereafter.
The human EBV-transformed B-cell line 5/2 was established from the peripheral blood of a healthy donor. The cell line was grown in RPMI 1640 supplemented with 8% fetal calf serum, L-glutamine (2 mM), and antibiotics. The cell line was tested regularly for mycoplasma infections and was consistently negative.
The assay system is a modification of the assay developed by Blazar et al. (12). […] Assays were done in 96 well microtiter plates in a final volume of 200 μl/well or in 25 cm^2 tissue culture flasks. The cells in the microtiter plates were cultured for 72 hours and cell growth was determined by labeling for the last 16 hours with 0.8 μCi/well of [^3 H]thymidine (sp. act. 6.7 Ci/mmol). Growth in the culture flasks was determined in three aliquots of 100 μl taken at 24 hours intervals and cultured in the presence of 0.8 μCi of [^3 H]thymidine for an additional 6 hour period. To determine the viable cell number, nine aliquots per time point were differentially counted in a Neubauer chamber in the presence of trypan blue.
5/2 cells were grown in the absence of retinol in a medium containing the basic RPMI 1640 amino acid/salt mixture, insulin (5 μg/ml), transferrin (5 μg/ml), albumin (0.1%) and linoleic acid (10^-6 M) (ITLB). […] The dose-response curve shown in FIG. 26 indicates an effective concentration of 10^-7 M.

Entries after “also recorded” stand apart in the source; their conditions may differ.

Take `CC1=C(/C=C/C(C)=C/C=C/C(C)=C/C(=O)O)C(C)(C)CCC1` [all-trans retinoic acid]: in the series with lymph node T cells (10^-5 M), the “stimulatory activity at 10^-5 M” value is reported as “very modest stimulatory activity”. The “stimulation of lymph node T cells” value in the series with lymph node T cells (anti-CD3) is reported as “nearly inert”. In addition, the “support of growth of LCL” value in series [1] was “not”. The “substitution for retinol in T cell activation” value with T cells is “not”; with T cells (listed as retinoic acid), “cannot be satisfied; also recorded: neither respond to externally provided retinoic acid”.
In the case of `CC(C=CC1=C(C)CCCC1(C)C)=CC=CC(C)(O)C(O)CO` (stereo not drawn) [13,14DHR, 13,14-dihydroxy-retinol], the “conversion to 14HRR” value with lymphoblastoid 5/2 cells is listed as “produced 14HRR”. For the same molecule, the “restoration of capacity to proliferate” value in the series with 5/2 cells is reported as “proliferation was restored as well”. In addition, the “substitution for retinol in T cell activation” value in the series with T cells was “can effectively substitute for retinol”; in the series on T cells (listed as 13,14 DHR) it was “capable of being used in lieu of retinol”.
